Source: article PMC6271731, “Multitarget Molecular Hybrids of Cinnamic Acids” (Molecules, 2014)
Where “and” joins values, the source holds several entries; their conditions need not be identical. Identical values can stand only once. Marks after values point to notes of the source that are not given here.

Columns and labels:
[1] = tested on: esterase; test: In vitro esterase activity on hybrids; format: in vitro ADME; settings: 1 mM, phosphate buffer pH 7.8, 37 °C, 90 min and 24 h
Description: Representative hybrid molecules are subjected to an esterase activity in vitro. 100 μL of 1 mg/mL 0.001 N hydrochloric acid of esterase solution was added to 1,250 μL of phosphate buffer (0.1 M) pH 7.8 including the tested compounds (150 μL in DMSO, final concentration 1 mM) and incubated at 37 °C for 90 min. The incubated solution was allowed to set at room temperature. Then, the absorption was measured at 256 nm. The measurement was repeated after 24 h of incubation at 37 °C.

[2] = tested on: acetic acid-induced writhing; test: Antinociceptive screen (writhing test); format: in vivo, Wistar rats; settings: i.p. 30 min before 0.6% acetic acid, writhes counted over 30 min
Description: (§1) Anti-inflammatory tests were conducted on Fisher-344 inbred rats of ca. 200 g body weight whereas antinociception and motor and sensory functions after sciatic nerve crash were performed on Wistar rats. Both sexes were used. Females pregnant were excluded. Each group was composed of 6 animals. The animals, which have been bred in our laboratory, were housed under standard conditions and received a diet of commercial food pellets and water ad libitum during the maintenance. Our studies were carried out in accordance with recognised guidelines on animal experimentation.
[…] Controls received the liquid vehicle only. All the in vivo experiments were repeated at least in triplicate and were subjected to statistic analysis using the student’s t-test.
The writhing reflex was used. The test compounds were administered i.p. 30 min prior to the i.p. administration of 1 mL/100 g body weight of 0.6% acetic acid. […] After 5 min, the number of stretches characterized by repeated contractions of the abdominal musculature accompanied by extension of the hind limbs was counted every 5 min for the next 30 min. […] The % antinociceptive activity (a:a) was calculated as: % a:a = (n − n'/n) × 100 (a: a analgesic activity, n average number of writhes of control group, n' average number in the test group).

[3] = In vitro stability under acidic and basic conditions; format: physicochemical; settings: pH 3, 4.5 and 9, 37 °C, 24 h
Description: In an attempt to mimic the acidic/basic conditions in the gastrointestinal route, measurements at pH: (i) 3; (ii) 4.5 and (iii) 9 were performed. The pH value was adjusted with the appropriate buffer (CH3COONa/CH3COOH) to 4.5 and 3 and Tris to pH 9. 20 μL of the tested compounds in DMSO and buffer 980 μL (4.5 or 3 pH) incubated at 37 °C for 24 h. The stability of the compounds was monitored chromatographically after 3 and 9 h. After 24 h, the incubated solution (in all cases) was treated with chloroform (1 mL). The organic layer was analyzed spectrophotometrically.

[4] = Lipophilicity as RM values by RP-TLC; format: physicochemical; settings: methanol/water 70/30, 24 °C, average of at least five measurements
Description: Since lipophilicity is a significant physicochemical property determining distribution, bioavailability, metabolic activity and elimination, we tried to determine experimentally the lipophilicity of the new substances by a RPTLC method as RM values (Table 1) and to compare them with the corresponding theoretically calculated clog p values in n-octanol-buffer. This is considered to be a reliable, fast and convenient method for expressing lipophilicity. Lipophilicity (Table 2), was theoretically calculated as Clog p values in n-octanol-buffer by the CLOGP Programme of Biobyte Corp..
Reversed phase TLC (RP-TLC) was performed on silica gel plates impregnated with 5% (v/v) liquid paraffin in light petroleum ether. The mobile phase was a methanol/water mixture (70/30, v/v). The plates were developed in closed chromatography tanks saturated with the mobile phase at 24 °C. Spots were detected under UV light. RM values were determined from the corresponding Rf values (from five individual measurements) using the equation RM = log [(1/Rf) − 1] (Table 1).

[5] = tested on: carrageenin-induced rat paw oedema; test: Inhibition of the carrageenin-induced rat paw oedema; format: in vivo, Fisher-344 rats; settings: 0.01 mmol/1 kg, i.p., 3.5 h after carrageenin
Description: as §1
The tested compounds 0.01 mmol/kg body weight were suspended in water with few drops of Tween 80 and ground in a mortar before use. Controls received the liquid vehicle only. All the in vivo experiments were repeated at least in triplicate and were subjected to statistic analysis using the student’s t-test.
Oedema was induced in the right hind paw of Fisher 344 rats by the intradermal injection of 0.1 mL 2% carrageenin in water. Each group was composed of 6 animals which they were entirely fasted during the experiment period. The tested compounds 0.01 mmol/kg body weight, were given intraperitoneally simultaneously with the carrageenin injection. The rats were euthanized 3.5 h after carrageenin injection. The difference between the weight of the injected and not-injected paws was calculated for each animal. The change in paw weight was compared with that in control animals (treated with water) and expressed as a percent inhibition of the oedema (ICPE % values in Table 1). Indomethacin 0.01 mmol/kg was used as reference compound. ICPE % are the mean values from two different experiments with a standard error of the mean less than 10%.

In the case of CC(=O)Nc1ccc(OC(=O)/C=C/c2cccc(Oc3ccccc3)c2)cc1 [Compound 2a, (E)-4-Acetamidophenyl 3-(3-phenoxyphenyl)acrylate], the “hydrolysis of the ester group by esterase” value [1] was “hydrolyzed”, the “% ANA (in vivo analgesic-antinociceptive activity)” value ([2]; 0.01 mmol/0.1 kg) was 91 ** % and the inhibition in vivo at 0.01 mmol/0.1 kg ([2]; Rattus norvegicus, ip, 0.5 h, read-out: % ANA (in vivo analgesic-antinociceptive activity)) was 91%. For the same compound, the “stability under acidic and basic conditions” value [3] was “confirmed the stability”, the “RM (±S.D.)” value [4] was 0.276 ± 0.006 and the “% ICPE (carrageenin-induced rat paw oedema inhibition)” value [5] was 36.5% and 36.5 ** %.
